Reference: US8575360B2, “Derivatives of 6,7-dihydro-5H-imidazo[1,2-a]imidazole-3-carboxylic acid amides” (Boehringer Ingelheim International GmbH, priority 2009, dated 2013)

Biological target: T1, LFA-1 (CD18/CD11a) binding to ICAM-1 (Homo sapiens, UniProt P05107+P20701)
T1 construct: followed by purified LFA-1 (in buffer of 50 mM triethylamine, 150 mM NaCl, 1% beta octylglucoside)
Test: LFA-1/Biotin-sICAM-1 AlphaScreen assay: inhibition of LFA-1 binding to ICAM-1
Settings: 37° C. 90 minutes, highest compound concentration 1 μM
Source text: Assay to Determine Inhibition of LFA-1 Binding to ICAM-1
This assay protocol is designed to study the direct antagonism, by a test compound, of the interaction of ICAM-1 with the Leukointegrin CD18/CD11a (LFA-1).
The LFA-1/Biotin-sICAM-1 molecular assay measures the ability of test compounds to inhibit binding of LFA-1 to Biotinylated-sICAM using AlphaScreen technology (Ref: Wilson, J, Rossi, C P, Carboni, S, Fremaux, C, Perrin, D, Soto, C, Kosco-Vilbois, M, and Scheer, A: A Homogeneous 384-Well High-Throughput Binding Assay for a TNF Receptor Using Alphascreen Technology. J Biomol Screen 2003; 8:522-532) that uses TS2/4(anti-LFA-1)-custom conjugated AlphaLisa acceptor beads and streptavidin-coated donor beads from PerkinElmer. The assay was performed in white OptiPlates-384 in a volume of 60 μL using assay buffer (Dulbecco's PBS containing calcium and magnesium, 2 mM MgCl2, 0.1 mM PMSF, 0.1% BSA, pH 7.1). To each well, Biotin-sICAM was added followed by purified LFA-1 (in buffer of 50 mM triethylamine, 150 mM NaCl, 1% beta octylglucoside, 2 mM MgCl2 neutralized to pH with 1M Tris-HCl, pH 7.5). For compound testing, compound was added in 5 uL to the above in 25 uL. LFA-1 and Biotin-sICAM-1 were used at concentrations that would yield a signal to background ratio of 8-10. The highest concentration of compound was 1 μM in 1% DMSO. Positive controls were wells without compound containing LFA-1, while blanks were wells without both compound and LFA-1. Plates were mixed and incubated at 37° C. for 90 minutes. This was followed by addition of 15 μL/well TS2/4-conjugated acceptor beads diluted in PBS containing 0.1% BSA for a final concentration of 10 μg/mL. The plates were mixed and incubated in the dark for 30 minutes at room temperature followed by addition of 15 μL/well streptavidin-coated donor beads diluted in PBS containing 0.1% BSA at a final concentration of 15 μg/mL. The plates were mixed and incubated in the dark for 60 minutes at room temperature and then read on an EnVision Multilabel Reader using AlphaScreen 384-well OptiPlate protocol.

T1 sequence (P20701 26-1170): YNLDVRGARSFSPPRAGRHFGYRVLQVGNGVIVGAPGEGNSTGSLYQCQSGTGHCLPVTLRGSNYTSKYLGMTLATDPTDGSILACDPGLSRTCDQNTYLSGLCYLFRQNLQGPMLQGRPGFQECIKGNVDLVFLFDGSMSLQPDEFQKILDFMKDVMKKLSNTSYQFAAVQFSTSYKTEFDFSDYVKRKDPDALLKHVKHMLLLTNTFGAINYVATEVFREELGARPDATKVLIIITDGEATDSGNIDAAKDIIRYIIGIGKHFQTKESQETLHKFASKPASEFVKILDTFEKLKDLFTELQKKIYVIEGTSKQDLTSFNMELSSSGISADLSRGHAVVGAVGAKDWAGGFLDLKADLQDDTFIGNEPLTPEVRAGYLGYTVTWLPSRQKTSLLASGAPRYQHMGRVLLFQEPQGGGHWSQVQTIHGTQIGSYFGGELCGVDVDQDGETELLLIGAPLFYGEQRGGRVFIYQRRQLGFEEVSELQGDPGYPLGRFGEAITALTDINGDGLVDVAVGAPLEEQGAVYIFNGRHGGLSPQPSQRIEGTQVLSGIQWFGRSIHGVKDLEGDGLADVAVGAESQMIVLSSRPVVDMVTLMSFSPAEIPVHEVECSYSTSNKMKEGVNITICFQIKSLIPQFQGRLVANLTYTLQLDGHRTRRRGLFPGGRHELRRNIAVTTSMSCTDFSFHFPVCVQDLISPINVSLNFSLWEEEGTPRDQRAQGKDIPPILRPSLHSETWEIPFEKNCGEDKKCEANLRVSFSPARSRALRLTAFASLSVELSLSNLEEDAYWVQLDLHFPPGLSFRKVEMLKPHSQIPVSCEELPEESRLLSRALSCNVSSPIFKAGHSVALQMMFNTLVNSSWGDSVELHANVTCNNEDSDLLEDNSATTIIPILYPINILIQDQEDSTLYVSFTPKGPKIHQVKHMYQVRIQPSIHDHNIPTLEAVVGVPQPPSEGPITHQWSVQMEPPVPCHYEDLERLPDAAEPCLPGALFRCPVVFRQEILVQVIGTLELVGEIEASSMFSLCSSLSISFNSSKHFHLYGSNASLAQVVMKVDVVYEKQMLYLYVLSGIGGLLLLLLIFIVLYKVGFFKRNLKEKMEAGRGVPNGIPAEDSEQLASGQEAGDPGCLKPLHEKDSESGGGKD
T1 sequence (P05107 23-769 partner): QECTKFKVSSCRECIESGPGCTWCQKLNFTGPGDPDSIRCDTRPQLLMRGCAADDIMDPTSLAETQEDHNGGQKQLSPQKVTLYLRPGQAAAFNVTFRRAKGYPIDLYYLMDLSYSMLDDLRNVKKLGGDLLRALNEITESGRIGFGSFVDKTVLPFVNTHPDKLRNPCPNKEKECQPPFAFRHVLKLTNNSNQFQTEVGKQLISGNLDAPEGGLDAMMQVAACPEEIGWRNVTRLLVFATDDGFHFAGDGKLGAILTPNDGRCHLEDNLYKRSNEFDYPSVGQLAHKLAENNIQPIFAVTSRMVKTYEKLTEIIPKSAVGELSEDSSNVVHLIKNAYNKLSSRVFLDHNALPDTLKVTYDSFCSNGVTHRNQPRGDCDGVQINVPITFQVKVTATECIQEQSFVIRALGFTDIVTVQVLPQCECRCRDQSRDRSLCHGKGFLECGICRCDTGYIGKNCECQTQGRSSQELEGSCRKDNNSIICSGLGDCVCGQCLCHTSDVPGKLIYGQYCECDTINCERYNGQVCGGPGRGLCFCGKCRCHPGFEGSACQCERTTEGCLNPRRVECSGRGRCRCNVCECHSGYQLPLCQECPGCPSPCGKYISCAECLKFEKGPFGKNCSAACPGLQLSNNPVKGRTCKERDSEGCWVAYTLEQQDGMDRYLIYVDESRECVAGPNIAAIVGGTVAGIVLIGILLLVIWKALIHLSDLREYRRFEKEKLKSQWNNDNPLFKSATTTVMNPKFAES

Row | SMILES | IC50
1 | C[C@H](NC(=O)c1cnc2n1[C@](C)(Cc1ccc(C#N)cc1)C(=O)N2c1cc(Cl)c(F)c(Cl)c1)C(=O)NC1(c2ccc(-c3cnn(C)c3)cn2)CC1 [Compound 88] | 890 pM
2 | C[C@@]1(Cc2ccc(C#N)cc2)C(=O)N(c2cc(Cl)cc(Cl)c2)c2ncc(C(=O)NC3(C(=O)NC4(c5ccc(-c6ccc(S(N)(=O)=O)cc6)cn5)CC4)CC3)n21 [Compound 132] | 720 pM
3 | C[C@@]1(Cc2ccc(C#N)cc2)C(=O)N(c2cc(Cl)c(F)c(Cl)c2)c2ncc(C(=O)NC3(C(=O)NC4(c5ccc(-c6ccc(S(C)(=O)=O)cc6)cn5)CC4)CC3)n21 [Compound 158] | 1300 pM
4 | C[C@@]1(Cc2ccc(C#N)cc2)C(=O)N(c2cc(Cl)c(F)c(Cl)c2)c2ncc(C(=O)NC3(C(=O)NC4(c5ncc(-c6cn[nH]c6)cn5)CC4)CC3)n21 [Compound 33] | 570 pM
5 | C[C@H](NC(=O)c1cnc2n1[C@](C)(Cc1ccc(C#N)cc1)C(=O)N2c1cc(Cl)c(F)c(Cl)c1)C(=O)NC1(c2ccc(-c3cn[nH]c3)cn2)CC1 [Compound 93] | 700 pM
6 | Cn1cc(-c2ccc(C3(NC(=O)C4(NC(=O)c5cnc6n5[C@](C)(Cc5ccc(Br)cc5)C(=O)N6c5cc(Cl)cc(Cl)c5)CC4)CC3)nc2)cn1 [Compound 75] | 1200 pM
7 | Cn1ncc(-c2ccc(C3(NC(=O)C4(NC(=O)c5cnc6n5[C@](C)(Cc5ccc(C#N)cc5)C(=O)N6c5cc(Cl)c(F)c(Cl)c5)CC4)CC3)nc2)c1C1CC1 [Compound 13] | 1800 pM
8 | Cc1ccc(-c2cnc(C3(NC(=O)C4(NC(=O)c5cnc6n5[C@](C)(Cc5ccc(C#N)cc5)C(=O)N6c5cc(Cl)c(F)c(Cl)c5)CC4)CC3)nc2)cn1 [Compound 112] | 540 pM
9 | C[C@@]1(Cc2ccc(OC(F)(F)F)cc2)C(=O)N(c2cc(Cl)c(F)c(Cl)c2)c2ncc(C(=O)NC3(C(=O)NC4(c5ccc(-c6ccc(=O)[nH]c6)cn5)CC4)CC3)n21 [Compound 108] | 1100 pM
10 | C[C@@]1(Cc2ccc(C#N)cc2)C(=O)N(c2cc(Cl)c(F)c(Cl)c2)c2ncc(C(=O)NC3(C(=O)NC4(c5ccc(-c6ccc(CO)cc6)cn5)CC4)CC3)n21 [Compound 100] | 1300 pM
11 | CC1(Cc2ccc(C#N)cc2)C(=O)N(c2cc(Cl)cc(Cl)c2)c2ncc(C(=O)NC3(C(=O)NC4(c5ccc(-c6cnoc6)cn5)CC4)CC3)n21 (centres unmarked) [Compound 127] | 340 pM
12 | C[C@@]1(Cc2ccc(C#N)cc2)C(=O)N(c2cc(Cl)cc(Cl)c2)c2ncc(C(=O)NC3(C(=O)NC4(c5ccc(-c6ccc(CO)cc6)cn5)CC4)CC3)n21 [Compound 136] | 560 pM
13 | C[C@@]1(Cc2ccc(C#N)cc2)C(=O)N(c2cc(Cl)cc(Cl)c2)c2ncc(C(=O)NC3(C(=O)NC4(c5ccc(-c6ccc(O)cc6)cn5)CC4)CC3)n21 [Compound 135] | 640 pM
14 | C[C@@]1(Cc2ccc(C#N)cc2)C(=O)N(c2cc(Cl)c(F)c(Cl)c2)c2ncc(C(=O)NC3(C(=O)NC4(c5ccc(-c6ccc(O)cc6)cn5)CC4)CC3)n21 [Compound 2] | 1100 pM
15 | C[C@H](NC(=O)c1cnc2n1[C@](C)(Cc1ccc(C#N)cc1)C(=O)N2c1cc(Cl)c(F)c(Cl)c1)C(=O)NC1(c2ccc(-c3ccc(CO)nc3)nc2)CC1 [Compound 90] | 280 pM
16 | Cc1ccc(-c2ccc(C3(NC(=O)C4(NC(=O)c5cnc6n5[C@](C)(Cc5ccc(C#N)cc5)C(=O)N6c5cc(Cl)c(F)c(Cl)c5)CC4)CC3)nc2)cn1 [Compound 18] | 1400 pM
17 | C[C@@]1(Cc2ccc(OC(F)(F)F)cc2)C(=O)N(c2cc(Cl)c(F)c(Cl)c2)c2ncc(C(=O)NC3(C(=O)NC4(c5ncc(-c6ccc(CO)nc6)cn5)CC4)CC3)n21 [Compound 110] | 650 pM
18 | Cn1cc(-c2ccc(C3(NC(=O)C4(NC(=O)c5cnc6n5[C@](C)(Cc5ccc(C#N)cc5)C(=O)N6c5cc(Cl)cc(C(F)(F)F)c5)CC4)CC3)nc2)cn1 [Compound 51] | 1200 pM
19 | C[C@@]1(Cc2ccc(OC(F)(F)F)cc2)C(=O)N(c2cc(Cl)c(F)c(Cl)c2)c2ncc(C(=O)NC3(C(=O)NC4(c5ccc(-c6cn[nH]c6)nn5)CC4)CC3)n21 [Compound 42] | 1300 pM
20 | C[C@H](NC(=O)c1cnc2n1[C@](C)(Cc1ccc(C#N)cc1)C(=O)N2c1cc(Cl)c(F)c(Cl)c1)C(=O)NC1(c2ncc(-c3ccc(CO)nc3)cn2)CC1 [Compound 78] | 1200 pM
21 | Cc1nn(C)cc1-c1cnc(C2(NC(=O)C3(NC(=O)c4cnc5n4[C@](C)(Cc4ccc(C#N)cc4)C(=O)N5c4cc(Cl)c(F)c(Cl)c4)CC3)CC2)nc1 [Compound 111] | 1600 pM

Now from value to molecule:

Row | IC50 | SMILES
22 | 1100 pM | Cc1ccc(-c2ccc(C3(NC(=O)C4(NC(=O)c5cnc6n5[C@](C)(Cc5ccc(C#N)cc5)C(=O)N6c5cc(Cl)cc(Cl)c5)CC4)CC3)nc2)cn1 [Compound 62]
23 | 530 pM | C[C@@H](NC(=O)C1(NC(=O)c2cnc3n2[C@](C)(Cc2ccc(C#N)cc2)C(=O)N3c2cc(Cl)c(F)c(Cl)c2)CC1)c1ccc(-c2ccc(CO)nc2)cn1 [Compound 65]
24 | 330 pM | Cn1cc(-c2ccc(C3(NC(=O)C4(NC(=O)c5cnc6n5[C@](C)(Cc5ccc(C#N)cc5)C(=O)N6c5cc(Cl)cc(Cl)c5)CC4)CC3)nc2)cn1 [Compound 149]
25 | 590 pM | C[C@@H](NC(=O)C1(NC(=O)c2cnc3n2[C@](C)(Cc2ccc(C#N)cc2)C(=O)N3c2cc(Cl)c(F)c(Cl)c2)CC1)c1ccc(-c2ccc(CO)nc2)nc1 [Compound 160]
26 | 560 pM | Cc1nn(C)cc1-c1ccc(C2(NC(=O)[C@@H](NC(=O)c3cnc4n3[C@](C)(Cc3ccc(C#N)cc3)C(=O)N4c3cc(Cl)c(F)c(Cl)c3)[C@@H](C)O)CC2)nc1 [Compound 155]
27 | 600 pM | C[C@@]1(Cc2ccc(C#N)cc2)C(=O)N(c2cc(Cl)c(F)c(Cl)c2)c2ncc(C(=O)NC3(C(=O)NC4(c5ccc(-c6ccncc6)cn5)CC4)CC3)n21 [Compound 68]
28 | 1900 pM | C[C@@]1(Cc2ccc(C#N)cc2)C(=O)N(c2cc(Cl)cc(Cl)c2)c2ncc(C(=O)NC3(C(=O)NC4(c5ccc(-c6cccc(CO)c6)cn5)CC4)CC3)n21 [Compound 143]
29 | 530 pM | C[C@@]1(Cc2ccc(C#N)cc2)C(=O)N(c2cc(Cl)cc(Cl)c2)c2ncc(C(=O)NC3(C(=O)NC4(c5ccc(-c6cccc(S(C)(=O)=O)c6)cn5)CC4)CC3)n21 [Compound 141]
30 | 1600 pM | C[C@@]1(Cc2ccc(C#N)cc2)C(=O)N(c2cc(Cl)cc(Cl)c2)c2ncc(C(=O)NC3(C(=O)NC4(c5ccc(-c6cnc7[nH]ccc7c6)cn5)CC4)CC3)n21 [Compound 146]
31 | 510 pM | Cn1cc(-c2cnc(C3(NC(=O)C4(NC(=O)c5cnc6n5[C@](C)(Cc5ccc(C#N)cc5)C(=O)N6c5cc(Cl)c(F)c(Cl)c5)CC4)CC3)nc2)cn1 [Compound 31]
32 | 1400 pM | C[C@@]1(Cc2ccc(C#N)cc2)C(=O)N(c2cc(Cl)c(F)c(Cl)c2)c2ncc(C(=O)NC3(C(=O)NC4(c5ncc(-c6ccc(CO)cc6)cn5)CC4)CC3)n21 [Compound 32]
33 | 1000 pM | C[C@@]1(Cc2ccc(C#N)cc2)C(=O)N(c2cc(Cl)cc(Cl)c2)c2ncc(C(=O)NC3(C(=O)NC4(c5ccc(-c6ccc(Cl)nc6)cn5)CC4)CC3)n21 [Compound 61]
34 | 850 pM | C[C@@H](NC(=O)[C@@H](NC(=O)c1cnc2n1[C@](C)(Cc1ccc(C#N)cc1)C(=O)N2c1cc(Cl)c(F)c(Cl)c1)[C@@H](C)O)c1ccc(-c2ccc(CO)nc2)cn1 [Compound 119]
35 | 960 pM | Cc1n[nH]c(C)c1-c1ccc(C2(NC(=O)C3(NC(=O)c4cnc5n4[C@](C)(Cc4ccc(C#N)cc4)C(=O)N5c4cc(Cl)cc(Cl)c4)CC3)CC2)nc1 [Compound 60]
36 | 910 pM | Cc1n[nH]c(C)c1-c1ccc(C2(NC(=O)C3(NC(=O)c4cnc5n4[C@](C)(Cc4ccc(C#N)cc4)C(=O)N5c4cc(Cl)c(F)c(Cl)c4)CC3)CC2)nc1 [Compound 157]
37 | 1000 pM | C[C@@]1(Cc2ccc(C#N)cc2)C(=O)N(c2cc(Cl)c(F)c(Cl)c2)c2ncc(C(=O)NC3(C(=O)NC4(c5ncc(-c6ccc(O)cc6)cn5)CC4)CC3)n21 [Compound 34]
38 | 1300 pM | C[C@@H](NC(=O)C1(NC(=O)c2cnc3n2[C@](C)(Cc2ccc(OC(F)(F)F)cc2)C(=O)N3c2cc(Cl)c(F)c(Cl)c2)CC1)c1ccc(-c2ccc(CO)nc2)cn1 [Compound 116]
39 | 800 pM | C[C@@]1(Cc2ccc(C#N)cc2)C(=O)N(c2cc(Cl)c(F)c(Cl)c2)c2ncc(C(=O)NC3(C(=O)NC4(c5ccc(-c6cccc(C(N)=O)c6)cn5)CC4)CC3)n21 [Compound 70]
40 | 1100 pM | Cc1nn(C)c(C)c1-c1ccc(C2(NC(=O)C3(NC(=O)c4cnc5n4[C@](C)(Cc4ccc(C#N)cc4)C(=O)N5c4cc(Cl)c(F)c(Cl)c4)CC3)CC2)nc1 [Compound 101]
41 | 890 pM | C[C@@]1(Cc2ccc(C#N)cc2)C(=O)N(c2cc(Cl)c(F)c(Cl)c2)c2ncc(C(=O)NC3(C(=O)NC4(c5ccc(-c6ccc(CO)cc6)nn5)CC4)CC3)n21 [Compound 37]
